From the supplement of paper PMC12317010
Counter-ions that a name gives are not always drawn.

Experiment: collision cross section in nitrogen (drift tube, single-field); higher = larger gas-phase ion size
[1] = ion type: [M-H], ion source: ESI, ion mode: Negative
[2] = ion type: [M+H], ion source: APCI, ion mode: Positive
[3] = ion type: [M+H], ion source: ESI, ion mode: Positive
[4] = ion type: [M+Na], ion source: ESI, ion mode: Positive
[5] = ion type: [M+], ion source: APCI, ion mode: Positive
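Further: chemical standards at 10 µM analysed by drift tube IMS-QTOF MS in about 3.95 torr nitrogen, mean of duplicate injections differing ≤1%, mass error below 10 ppm.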

SMILES	collision cross section in nitrogen [1] [Å²]	collision cross section in nitrogen [2] [Å²]	collision cross section in nitrogen [3] [Å²]	also measured
Cc1ccc2c(c1)C(=O)c1ccccc1C2=O [2-Methylanthraquinone]	145.3			
Cc1ccccc1S(=O)(=O)O [2-Methylbenzenesulfonic acid]	131.9			
Cc1ncc[nH]1 [2-Methylimidazole]	112.8			
Cc1ccc2ccccc2n1 [2-Methylquinoline]		125.2	126.2	
CCCCCCCCCCCCCC(=O)OC(CO)CO [2-Myristoyl glycerol]				collision cross section in nitrogen [4]: 183.7 Å²
Oc1ccc2ccccc2c1 [2-Naphthalenol]	128.7			
O=C(O)COc1ccc2ccccc2c1 [2-Naphthoxyacetic acid]	151.2			
Nc1ccccc1[N+](=O)[O-] [2-Nitrobenzenamine]	121.6			
O=[N+]([O-])c1ccc2c(c1)Cc1ccccc1-2 [2-Nitrofluorene]	141.1			
O=[N+]([O-])c1ccccc1O [2-Nitrophenol]	121.2			
NC(=O)CN1CCCC1=O [2-Oxo-1-Pyrrolidineacetamide]				collision cross section in nitrogen [4]: 136.8 Å²
c1ccc(-c2nc3ccccc3[nH]2)cc1 [2-Phenylbenzimidazole]	142.6	142.8	143	
Oc1ccccc1-c1ccccc1 [2-Phenylphenol]	136.4			
OCCC1CCCCN1 (stereo not given) [2-Piperidineethanol]		125.7	126.6	
C=CCS(=O)(=O)O [2-Propene-1-sulfonic acid, sodium salt]	119.1			
CCCc1ccccc1O [2-Propylphenol]	129.6			
CCCCOCCOCCOCCO [2-[2-(2-Butoxyethoxy)ethoxy]ethanol]				collision cross section in nitrogen [4]: 150.9 Å²
COCCOCCOCCO [2-[2-(2-Methoxyethoxy)ethoxy]ethanol]				collision cross section in nitrogen [4]: 135.6 Å²
CCCOCCOCCOCCO [2-[2-(2-Propoxyethoxy)ethoxy]ethanol]				collision cross section in nitrogen [4]: 144.4 Å²
CCCCCCOCCOCCO [2-[2-(Hexyloxy)ethoxy]ethanol]				collision cross section in nitrogen [4]: 151.8 Å²
CCN(CC)c1ccc(C(=O)c2ccccc2C(=O)O)c(O)c1 [2-[4-(Diethylamino)-2-hydroxybenzoyl]benzoic acid]	179.8	177.2	177.1	collision cross section in nitrogen [4]: 187.1 Å²
CN(C)CCOCCN(C)CCO [2-[{2-[2-(Dimethylamino)ethoxy]ethyl}(methyl)amino]ethanol]		138.5	138.3	collision cross section in nitrogen [4]: 144 Å²

SMILES	collision cross section in nitrogen [1] [Å²]	collision cross section in nitrogen [2] [Å²]	collision cross section in nitrogen [3] [Å²]	also measured
CCCCCCCCn1sccc1=O [2-n-Octyl-4-isothiazolin-3-one]		158.3	158	
CCc1ccc(O)c(C(C)(C)C)c1 [2-tert-Butyl-4-ethylphenol]	144.6			
COc1ccc(O)c(C(C)(C)C)c1 [2-tert-Butyl-4-methoxyphenol]	142.3			
Cc1ccc(C(C)(C)C)c(O)c1 [2-tert-Butyl-5-methylphenol]	138.7			
Cc1cccc(C(C)(C)C)c1O [2-tert-Butyl-6-methylphenol]	138.2			
COc1ccc(NC(C)=O)cc1N [3'-Amino-4'-methoxyacetanilide]		137.3	137.2	
Cc1cn([C@H]2C[C@H](N=[N+]=[N-])[C@@H](CO)O2)c(=O)[nH]c1=O [3'-Azido-3'-deoxythymidine]	159.9			
CC(C)(c1cc(Br)c(O)c(Br)c1)c1cc(Br)c(O)c(Br)c1 [3,3',5,5'-Tetrabromobisphenol A]	193.4			
Cc1cc(-c2cc(C)c(N)c(C)c2)cc(C)c1N [3,3',5,5'-Tetramethylbenzidine]		175.7	176	collision cross section in nitrogen [5]: 162.4 Å²
Cc1ccc(NC(=O)N(C)C)cc1NC(=O)N(C)C [3,3'-(4-Methylbenzene-1,3-diyl)bis(1,1-dimethylurea)]	165.1		162.7	collision cross section in nitrogen [4]: 167.6 Å²
N#CCCOCCOCCC#N [3,3'-(Ethylenedioxy)dipropiononitrile]				collision cross section in nitrogen [4]: 143 Å²
Nc1ccc(-c2ccc(N)c(Cl)c2)cc1Cl [3,3'-Dichlorobenzidine dihydrochloride]			167.6	collision cross section in nitrogen [5]: 153.3 Å²
Cc1cc(-c2ccc(N)c(C)c2)ccc1N [3,3'-Dimethylbenzidine dihydrochloride]		151.9	166.2	collision cross section in nitrogen [5]: 150.7 Å²
Cc1cc(-c2ccc(N)c(C)c2)ccc1N [3,3'-Dimethylbenzidine]		166.1	166.5	collision cross section in nitrogen [5]: 150.8 Å²
Cc1cc(C(C)(C)c2ccc(O)c(C)c2)ccc1O [3,3'-Dimethylbisphenol A]	172.9			
Nc1cccc(S(=O)(=O)c2cccc(N)c2)c1 [3,3'-Sulphonyldianiline]				collision cross section in nitrogen [4]: 172.6 Å²
NCCCOCCOCCOCCCN [3,3'-[Oxybis(ethane-2,1-diyloxy)]dipropan-1-amine]		147.9	148.3	collision cross section in nitrogen [4]: 150.3 Å²
Nc1ccc(Oc2ccc(N)c(N)c2)cc1 [3,4,4'-Triaminodiphenyl ether]		159.9		
N#Cc1nc(Cl)c(Cl)c(Cl)c1Cl [3,4,5,6-Tetrachloropyridine-2-carbonitrile]			142.6	
O=C1CCc2ccccc2O1 [3,4-Dihydrocoumarin]	127.6			
Cc1ccc(O)cc1C [3,4-Dimethylphenol]	128.7			
N[C@@H](Cc1cc(I)c(Oc2ccc(O)c(I)c2)c(I)c1)C(=O)O [3,5,3'-Triiodothyronine]	198.1		205.3	

SMILES	collision cross section in nitrogen [1] [Å²]	collision cross section in nitrogen [2] [Å²]	collision cross section in nitrogen [3] [Å²]	also measured
N[C@@H](Cc1cc(I)c(Oc2ccc(O)c(I)c2)c(I)c1)C(=O)O [3,5,3′-Triiodo-L-thyronine monosodium salt]	198.1		204.8	
Nc1cc(N)cc(C(=O)O)c1 [3,5-Diaminobenzoic acid]	136.6			
O=C(O)c1cc(Br)c(O)c(Br)c1 [3,5-Dibromo-4-hydroxybenzoic acid]	136.4			
O=C1N=CC(Cl)=CC1Cl (stereo not given) [3,5-Dichloro-2-pyridone]	123.4			
O=C(O)c1cc(Cl)cc(Cl)c1O [3,5-Dichlorosalicylic acid]	130.7			
CCCC1C(CC)=CC(CC)=CN1c1ccccc1 (stereo not given) [3,5-Diethyl-1-phenyl-2-propyl-1,2-dihydropyridine]		163.4		
Cc1cc(C)cc(O)c1 [3,5-Dimethylphenol]	127.3			
COCCOCCOCCOCCOCCO [3,6,9,12,15-Pentaoxahexadecanol]		151.8		collision cross section in nitrogen [4]: 153.3 Å²
CCCCOCCOCCOCCOCCO [3,6,9,12-Tetraoxahexadecan-1-ol]		157.1		collision cross section in nitrogen [4]: 160.4 Å²
C=COCCOCCOCCOC=C [3,6,9,12-Tetraoxatetradeca-1,13-diene]				collision cross section in nitrogen [4]: 143.4 Å²
CC(=O)CCCCn1c(=O)c2c(ncn2C)n(C)c1=O [3,7-Dihydro-3,7-dimethyl-1-(5-oxohexyl)-1H-Purine-2,6-dione]			160.9	collision cross section in nitrogen [4]: 172 Å²
CCC(C)(CCCC(C)C)OC(C)=O (stereo not given) [3,7-Dimethyloctan-3-yl acetate]	154.8			
OCCCc1cccnc1 [3-(3-Pyridyl)-1-propanol]		128	128.4	
CCN(Cc1cccc(S(=O)(=O)O)c1)c1ccccc1 [3-((Ethylphenylamino)methyl)benzenesulfonic acid]	175.5		161.1	collision cross section in nitrogen [4]: 174.9 Å²
NCc1cccnc1 [3-(Aminomethyl)pyridine]		118.5	119.6	
ClCc1cccnc1 [3-(Chloromethyl)pyridine hydrochloride]		123.8		
CCCCCCCCCCC=CC1CC(=O)OC1=O (stereo not given) [3-(Dodecenyl)dihydro-2,5-furandione]	170.1			
CCN(CCC#N)c1cccc(C)c1 [3-(Ethyl(3-methylphenyl)amino)propanenitrile]		144.7	144.3	collision cross section in nitrogen [5]: 143.6 Å²
CCCCCCCCOCCCN [3-(Octyloxy)propan-1-amine]		156.9	156.2	
O=[N+]([O-])c1ccc(O)cc1C(F)(F)F [3-(Trifluoromethyl)-4-nitrophenol]	128.7			
O=C(O)c1cccc(C(F)(F)F)c1 [3-(Trifluoromethyl)benzoic acid]	132.4			
Oc1cccc(C(F)(F)F)c1 [3-(Trifluoromethyl)phenol]	121.3			
